Experimental data from article PMC5152921, “Evolutionary and Functional Diversification of the Vitamin D Receptor-Lithocholic Acid Partnership” (PLoS ONE, 2016).

Tests used:
Lamprey VDR = biological target: T1, Lamprey VDR (Petromyzon marinus, UniProt Q7ZZY9); assay: Mammalian 2-hybrid assay (VDR-coregulator interaction, HepG2); format: cell-based; settings: 100 μM LCA
T1 sequence (Q7ZZY9 1-406): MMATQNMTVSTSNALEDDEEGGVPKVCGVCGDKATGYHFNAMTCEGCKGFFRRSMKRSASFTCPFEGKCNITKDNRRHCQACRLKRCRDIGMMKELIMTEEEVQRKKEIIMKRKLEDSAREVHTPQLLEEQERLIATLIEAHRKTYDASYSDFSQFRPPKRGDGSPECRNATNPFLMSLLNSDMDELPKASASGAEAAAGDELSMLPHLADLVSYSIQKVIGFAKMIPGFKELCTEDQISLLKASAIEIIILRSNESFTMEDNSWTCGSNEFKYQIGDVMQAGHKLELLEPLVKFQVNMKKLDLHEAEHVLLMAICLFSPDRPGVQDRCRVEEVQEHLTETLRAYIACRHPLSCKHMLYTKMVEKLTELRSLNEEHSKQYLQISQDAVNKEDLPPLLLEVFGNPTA
T1 sequence (P19793 1-462 partner): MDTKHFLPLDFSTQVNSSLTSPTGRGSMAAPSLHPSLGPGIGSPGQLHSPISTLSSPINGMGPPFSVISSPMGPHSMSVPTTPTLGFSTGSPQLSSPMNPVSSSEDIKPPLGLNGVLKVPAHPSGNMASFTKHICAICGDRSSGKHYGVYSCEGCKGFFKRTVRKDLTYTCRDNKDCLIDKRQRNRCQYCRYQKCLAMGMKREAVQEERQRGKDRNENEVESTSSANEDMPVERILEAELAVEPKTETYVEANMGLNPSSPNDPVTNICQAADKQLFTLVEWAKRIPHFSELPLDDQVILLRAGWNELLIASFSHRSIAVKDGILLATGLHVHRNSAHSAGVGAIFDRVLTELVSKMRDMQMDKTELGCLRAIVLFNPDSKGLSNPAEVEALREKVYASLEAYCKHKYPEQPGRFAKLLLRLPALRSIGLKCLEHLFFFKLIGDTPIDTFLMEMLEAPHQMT
Description: Prey constructs included full-length VDRs fused to the herpes simplex VP16 activation domain (pVP16-VDR). Bait constructs consisted of either full-length wild-type human RXR (pM-RXRWT), a truncated human RXR mutant (pM-RXRAF2), or the defined NR box of each member of the SRC/p160 family (pM-SRC1_241-386, pM-GRIP1_479-767, or pM-ACTR392-1005) fused to the yeast Gal4 DNA-binding domain. Reporters included the Gal4 luciferase reporter (5xGal4-TATA-Luc) and pRL-CMV as an internal luciferase control.
HepG2 cells were seeded into 96-well tissue culture plates as described above and transfected with Lipofectamine 2000 the following day. Each well received 33.6 ng pVP16-VDR, 33.6 ng pM-coregulator (where indicated), 126.6 ng 5XGal4-TATA-Luc, and 3 ng pRL-CMV. […] Positive controls were treated with 1,25D3 and vehicle controls were treated with ethanol. Luciferase activity was measured 24 hours post-exposure using the Dual-Glo Luciferase Assay System described above. Raw luciferase data were normalized to the pRL-CMV luciferase control. VDR-coregulator response was normalized to the pVP16-VDR in the absence of bait constructs. Results were analyzed using a two-way ANOVA followed by Bonferroni’s multiple comparisons test in Prism (GraphPad Inc, San Diego, CA). All experiments were replicated 3 times and conducted as groups of 4 replicate wells.

Zebrafish VDRβ = biological target: T2, Zebrafish VDRβ (Danio rerio, UniProt Q1L673); assay: Transient transactivation assay (XREM-Luc, HepG2); format: cell-based; set-up: expressed in transfected cells; host or cells: HepG2; settings: 100 μM LCA; co-transfected human RXRWT; vs VDR alone
T2 sequence (Q1L673 1-422): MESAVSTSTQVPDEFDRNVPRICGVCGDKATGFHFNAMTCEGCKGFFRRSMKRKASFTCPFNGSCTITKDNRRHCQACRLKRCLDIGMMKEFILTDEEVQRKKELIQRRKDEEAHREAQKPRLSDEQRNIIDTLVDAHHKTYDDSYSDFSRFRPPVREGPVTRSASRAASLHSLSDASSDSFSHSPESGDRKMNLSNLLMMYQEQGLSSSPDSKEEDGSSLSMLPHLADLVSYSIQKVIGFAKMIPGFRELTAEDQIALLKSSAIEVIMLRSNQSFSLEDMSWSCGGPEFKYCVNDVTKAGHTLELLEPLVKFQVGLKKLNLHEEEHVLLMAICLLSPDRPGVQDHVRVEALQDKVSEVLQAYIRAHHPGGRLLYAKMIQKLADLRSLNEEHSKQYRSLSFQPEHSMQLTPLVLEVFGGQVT
Method: HepG2 cells (American Type Culture Collection #HB-8065) were cultured in T75 flasks with vented caps (Corning Life Sciences, Corning, NY) using Minimum Essential Medium (MEM) with phenol red supplemented with 10% fetal bovine serum, 1 mM sodium pyruvate, and 1X MEM non-essential amino acids. Cells were maintained following standard protocols in a 5% CO2 incubator set at 37°C, and split when 80–90% confluent.
For the transient transactivation assays, HepG2 cells were seeded in 96-well tissue culture plates at a density of 2.5x10^4 cells per well in complete phenol red-free MEM, and allowed to recover overnight. Transfections were performed the following day using Lipofectamine 2000 (Life Technologies, Grand Island, NY) as described previously. […] LCA-mediated VDR transactivation (fold activation) was calculated as the ratio of the VDR luciferase response relative to the empty vector control. […] VDR response in the absence of coregulators was analyzed using a 1-way ANOVA followed by Dunnett’s multiple comparisons test. To examine the effects of different coregulators on VDR activation, data were analyzed using a 2-way ANOVA followed by Bonferroni’s multiple comparisons test in GraphPad Prism (GraphPad Inc, San Diego, CA).

## C[C@H](CCC(=O)O)[C@H]1CC[C@H]2[C@@H]3CC[C@@H]4C[C@H](O)CC[C@]4(C)[C@H]3CC[C@]12C [LCA, 5β-cholanic acid-3α-ol]
Lamprey VDR; any of the SRC/p160 coactivators
  VDR-SRC/p160 coactivator interaction: No protein-protein interaction was observed
Lamprey VDR; bait human RXRWT, presence and absence of SRC1
  VDR-RXRWT interaction (heterodimerization): not observed
Zebrafish VDRβ
  Effect of exogenous human RXRWT on VDR transactivation: significantly enhanced transactivation
